Peptide text beside a SMILES is read from it.
Assays:
[1] = test system: MB231 breast cancer cells; settings: summary table
Procedure: A typical in vitro screen for anti-tumor or anti-cancer effects was carried out as follows.
An aliquot of 2,000 MB231 breast cancer cells (breast carcinoma cells) in 100 μl DMEM complete media (Sigma Chemical Co.) was plated in a 96 well plate containing at a concentration of 20 μg/ml a test substance or control water. To measure proliferation of the cancer cells, an aliquot of 20 μl of MTS reagent (Promega Co.) was added to each well and the cells were incubated at 37° C. for a total of three days. The cells rapidly metabolized MTS reagent and the metabolized MTS reagent was measured at 490 nm at the end of days 1, 2 and 3. The reading was proportional to the number of cancer cells. The decrease in absorbance at each time point indicated fewer cancer cells. At the end of day 3, the decrease in absorbance with respect to the control indicated the inhibition by the test substance.

[2] = knee osteoarthritis, intra-articular injections; assay type: in vivo, human; settings: for duration of relief of pains / period of diminished edema and inflammation of the knees and lower legs / time after injection until pains in both knees disappeared: Example 18: subject; for duration of relief of pains / period of diminished edema and inflammation of the knees and lower legs: intra-articular 1 mg each knee; for time after injection until pains in both knees disappeared: intra-articular 1 mg each knee (-OH 1% in water 0.1 ml; -OEt 0.2% with 1% methyl cellulose 0.5 ml)
Procedure: A subject had severe osteoarthritis of both knees for more than four years. Prior therapy had included intra-articular injections of corticosteroids and hyaluronic acid as well as celecoxib (Celebrex) orally (200 mg) twice daily. Such therapy had provided only mild transitory relief of knee pain and edema, and edema of lower legs.
Intra-articular injections of 1% (w/v) N-Ac-L-Tyr-L-Tyr-L-Tyr-OH in water, 0.1 ml (1 mg) as prepared in Example 4 were administered to each knee. The pains in both knees disappeared about 20-30 minutes after the injections, and the relief of pains lasted for 24 hours. Edema and inflammation of the knees and lower legs had diminished for approximately the same 24 hour period. Repeat injections of the same composition were administered once a week for several weeks to provide continued relief of pain, edema and inflammation.
In another trial, intra-articular injections of 0.2% (w/v) N-Ac-L-Tyr-L-Tyr-L-Tyr-OEt with 1% (w/v) methyl cellulose in water, 0.5 ml (1 mg) as prepared in Example 4 were also administered to each knee at different times. The pains in both knees disappeared about 20-30 minutes after the injections, and the relief of pains lasted for 24 hours. Edema and inflammation of the knees and lower legs had diminished for approximately the same 24 hour period.
A subject had osteoarthritis of both knees for more than four years. […] Intra-articular injections of each knee with N-Ac-L-Tyr-L-Tyr-L-Tyr-OH, 7-13 mg in aqueous solution had provided substantial relief of pain in the joints for 2-3 days.
(§1) In yet another embodiment, the volunteer subject injected intra-articularly into a knee joint a test composition containing a N-acylpeptide derivative of the present invention to improve and reduce arthritic inflammation and pain of the joint.

[3] = summary of test results in volunteer subjects, efficacy grades; assay type: in vivo, human; settings: efficacy grade
Description: Subject 1. Person had multiple red and itchy inflammation, dermatitis, or eczema lesions, which were resistant to conventional treatments including corticosteroids. Subject 2. Person had small red and itchy lesions which were resistant to topical corticosteroid treatment. Subject 3. Person had multiple red and itchy inflammation, dermatitis, or eczema lesions over the body for many years, which were resistant to conventional treatments including corticosteroids. Subject 4. Person had red and itchy inflammation, dermatitis, or eczema lesions for many years, which were resistant to topical corticosteroid treatment. Subject 5. Person had early stage of aging related skin changes on both forearms as indicated by age spots and wrinkled skin caused by solar damage. Subject 6. Person had age spots, keratoses and wrinkles on both forearms caused by intrinsic and extrinsic aging. Subject 7. Person had age spots, and wrinkles on both forearms caused by intrinsic and extrinsic aging. Subject 8. Person had osteoarthritis of both knees with inflammation and pain for more than 4 years, and had only mild transitory relief from conventional treatments. Subject 9. Person had sensitive skin with inflammatory lesions on the body. Subject 12. Person had dermatitis and inflammatory lesions on the left palm. Subject 14. Person had multiple age spots including lentigines and keratosis on their face. Subject 15. Person had psorisis Subject 16. Person had sensitive skin and eczema for more than 40 years
In another embodiment, the volunteer subject topically applied the test compositions containing N-acylpeptide derivatives of the present invention on involved skin or lesions once or twice daily for several weeks or until the involved lesions completely cleared and clinically changed to normal skin. As a control study, the subject also topically applied a vehicle control composition on the involved skin or lesions twice daily for the same period.
(§2) In yet another embodiment, the volunteer subject topically applied once or twice daily the test compositions containing N-acylpeptide derivatives of the present invention on the skin site above arthritic joints or painful muscles to provide therapeutic effects for the systemic disorders via topical administration.
as §1
Some test results are summarized as follows.
DK: Disturbed keratinization AG: Aging related changes of skin, nail and hair DI: Deranged immune disorders and inflammation ND: Nerve disorders CA: Tumors and/or cancers

[4] = topical treatment of chronic inflammation, erythema, eczema with thick scales and itch, clinical evaluation; assay type: in vivo, human; settings: Example 10: subject, -NH2 0.3% and -OEt 0.5% (w/v) in WEP442
Description: The involved skin was divided into two lesions for testing. The subject topically applied twice daily to one lesion, N-Ac-L-Tyr-L-Tyr-L-Tyr-NH2 0.3% (w/v) in WEP442, pH 5.9 solution composition, prepared according to Example 2, and to second lesion, N-Ac-L-Tyr-L-Tyr-L-Tyr-OEt 0.5% (w/v) in WEP 442, pH 6.0, prepared according to Example 2. […] The treated skin had 90-95% improvement as judged by clinical evaluation.

[5] = skin plump / skin thickness test after topical application, caliper measurement; assay type: in vivo, human; settings: for increased skin thickness: 1% (w/v) in WEP442 three times daily
Procedure: In one of the studies related to skin changes associated with aging, skin thickness was measured by micrometer calipers as follows.
The skin was grasped with a 2×6 cm metal hinge: the internal faces of which were coated with emery cloth to prevent slippage, and manually squeezed to threshold subject discomfort. Combined thickness of two whole-skin layers including thickness of the two hinge leaves was measured with micrometer calipers. Thickness of the two hinge leaves was subtracted to determine the actual thickness of two whole-skin layers. Triplicate measurements on treated sites were done and an average number was used for calculation of the skin thickness.
In other studies, test sites of skin 17 mm in diameter were used, the circular sites were marked with permanent ink. Intervening control sites were also 17 mm in diameter. Thickness of skin of all sites was measured directly by means of an electronic digital caliper. In this instance the jaws of the caliper were opened to 17 mm, applied with pressure to the skin sites and then closed to firm tightness. Thickness of skin was then read off the screen of the calipers. Measurements of all sites were made in triplicates. […]

[6] = knee osteoarthritis, topical maintenance therapy; assay type: in vivo, human; settings: Example 25: subject, 1% (w/v) in EP73 topically 2-3 times daily on skin covering the knee areas
Description: as §2

[7] = topical treatment of bilateral inter-metacarpal atrophy of hands; assay type: in vivo, human; settings: Example 23: subject, 2% (w/v) in EP73 two to three times daily, three weeks
Description: A subject had bilateral inter-metacarpal atrophy of both hands with certain restrictions of hand movements. The subject topically applied two to three times daily N-Ac-L-Tyr-L-Tyr-L-Tyr-OEt, 2% (w/v) in EP73 on the back of their left hand, and vehicle control EP73 on the back of their right hand for three weeks.
The subject now, topically applied twice daily N-Ac-L-Tyr-L-Tyr-L-Tyr-NH2, 1% (w/v) in WEP442 on the back of their left hand as a mantenace therapy.

[8] = topical treatment of telangiectatic rosacea, clinical evaluation; assay type: in vivo, human; settings: Example 22: subject, face, 1% (w/v) in WEP442 twice daily, two weeks
Description: A subject had rosacea on their face with erythema, inflammation and dilated blood vessels, described as telangiectatic rosacea. The subject topically applied twice daily N-Ac-L-Tyr-L-Tyr-L-Tyr-OEt, 1% (w/v) in WEP442 for two weeks. At the end of two weeks, the erythema and inflammation had diminished, and improvement in rduced size of telangiectatic blood vessels was discernible. The rosacea lesions had approximately 25% improvement as judged by clinical evaluation.

[9] = skin thickness after intradermal injection on the forearms; assay type: in vivo, human; settings: Example 15: subject, intradermal 0.05 ml (0.5 mg) of 1% in water, after 8 days
Procedure: In other studies, test sites of skin 17 mm in diameter were used, the circular sites were marked with permanent ink. Intervening control sites were also 17 mm in diameter. Thickness of skin of all sites was measured directly by means of an electronic digital caliper. In this instance the jaws of the caliper were opened to 17 mm, applied with pressure to the skin sites and then closed to firm tightness. Thickness of skin was then read off the screen of the calipers. Measurements of all sites were made in triplicates.
A typical systemic administration by intradermal injection was carried out as follows. A subject, injected intradermally on the forearms the following N-acylpeptide derivative of the present invention:
(a). N-Ac-L-Tyr-L-Tyr-L-Tyr-OH, 0.05 ml (0.5 mg) of 1% in water, after 8 days, there was 10-20% increase in skin thickness of 6 mm size skin at the injection site: effective for aging skin. (b). N-Ac-L-Ala-L-Leu-L-Lys-L-His-L-Arg-NH2 (SEQ ID NO: 51), 0.05 ml (0.5 mg) of 1% in water. (c). N-Bz-L-Ala-L-Leu-L-Lys-L-His-L-Arg-NH2 (SEQ ID NO: 65), 0.05 ml (0.5 mg) of 1% in water. (d). N-Ac-(EEASPEAVAGVGFESK)-NH2 (SEQ ID NO: 126), 0.1 ml (0.4 mg) of 0.4% in water.

[10] = urination (diuretic effect) after topical application on forehead; assay type: in vivo, human; settings: Example 17: subject, 0.2% in WEP442 on forehead, about one hour later; repeated next day with same result
Description: The subject then topically applied N-Ac-L-Tyr-L-Tyr-L-Tyr-OH, 0.2% in WEP442 on their forehead. […] The subject repeated the same procedure the next day, and obtained the same result.

## CC(=O)N[C@@H](CCC(=O)O)C(=O)N[C@@H](CCC(=O)O)C(=O)N[C@@H](C)C(=O)N[C@@H](CO)C(=O)N1CCC[C@H]1C(=O)N[C@@H](CCC(=O)O)C(=O)N[C@@H](C)C(=O)N[C@H](C(=O)N[C@@H](C)C(=O)NCC(=O)N[C@H](C(=O)NCC(=O)N[C@H](C(=O)N[C@@H](CCC(=O)O)C(=O)N[C@@H](CO)C(=O)N[C@@H](CCCCN)C(N)=O)c1ccccc1)C(C)C)C(C)C [N-Ac-(EEASPEAVAGVGBESK)-NH2] (HELM PEPTIDE1{[ac].E.E.A.S.P.E.A.V.A.G.V.G.[Phg].E.S.K.[am]}$$$$V2.0)
[1]
  CA (Tumors and/or cancers): 9% Inhibition

## N-Ac-L-Tyr-L-Tyr-L-Tyr-OEt
[2]
  duration of relief of pains: 24 h
  period of diminished edema and inflammation of the knees and lower legs: ~24 h
  time after injection until pains in both knees disappeared: 20 to 30 min
[3]
  AG: Aging related changes of skin, nail and hair: 3+ (3+: 75% Efficacy)
  DI: Deranged immune disorders and inflammation: 3+ (3+: 75% Efficacy)
  DK: Disturbed keratinization: 3+ (3+: 75% Efficacy)
  ND: Nerve disorders: 4+ (4+: 95-100% Efficacy)
[4]
  itch: stopped within a few minutes
[5]; Example 9: subject, severe photodamage, forearm spots, 0.5% (w/v) in WEP721 (spot A in WEP442) four times daily, 10 days
  increase in skin thickness: 20-30%
[5]; Example 19: subject, right extensor forearm, 0.8% (w/v) in WEP442 three times daily, four weeks
  increase in skin thickness: approximately 33%
[5]; Example 20: subject, photoaging forearms, 0.5% (w/v) in WEP442 three times daily, four weeks
  skin condition of test site vs vehicle control: palpably raised, smooth, less wrinkled and increased in skin thickness
[5]; Example 20: subject, photoaging forearms, four weeks
  increased skin thickness: approximately 12%
[5]; Example 24: subject, 2% (w/v) in EP73 two to three times daily, six weeks, starting thickness 1.70 mm
  skin thickness on the back of left hand (average): 2.59 mm
[5]; Example 24: subject, back of left hand, 2% (w/v) in EP73 two to three times daily, six weeks
  increase over the starting skin thickness: 52%
[6]
  knee joint pain under maintenance therapy: continued relief of knee joint pains
[7]
  inter-metacarpal atrophy of left hand: disappeared almost completely
[8]
  improvement of rosacea lesions as judged by clinical evaluation: approximately 25%

## N-Ac-L-Tyr-L-Tyr-L-Tyr-OH
[2]
  duration of relief of pains: 24 h
  period of diminished edema and inflammation of the knees and lower legs: ~24 h
  time after injection until pains in both knees disappeared: 20 to 30 min
[2]; Example 25: subject, intra-articular 7-13 mg in aqueous solution each knee
  duration of substantial relief of pain in the joints: 2 to 3 days
[9]
  increase in skin thickness of 6 mm size skin at the injection site: 10-20%
[3]
  AG: Aging related changes of skin, nail and hair: 2+ (2+: 50% Efficacy)
  DI: Deranged immune disorders and inflammation: 3+ (3+: 75% Efficacy)
  DK: Disturbed keratinization: 2+ (2+: 50% Efficacy)
  ND: Nerve disorders: 3+ (3+: 75% Efficacy)
[10]
  urination: urge for urination
[5]; Example 21: subject, sun damaged forearms, one week
  increased skin thickness: approximately 29%
